Source: PMC3600304, “Inhibitors of Fatty Acid Synthesis Induce PPARα-Regulated Fatty Acid β-Oxidative Genes: Synergistic Roles of L-FABP and Glucose” (PPAR Research, 2013)

Assays:
[1] = test system: CPT1A; set-up: method as in PMID 39932, PMID 4051503, PMID 12060712, PMID 502765; settings: rat hepatocytes, media with high glucose (11 mM); cited from earlier work
[2] = biological target: T1, L-FABP (Rattus norvegicus, UniProt P02692); experiment: Displacement of L-FABP-bound NBD-stearic acid; format: binding
T1 construct: made in house
T1 sequence (P02692 1-127): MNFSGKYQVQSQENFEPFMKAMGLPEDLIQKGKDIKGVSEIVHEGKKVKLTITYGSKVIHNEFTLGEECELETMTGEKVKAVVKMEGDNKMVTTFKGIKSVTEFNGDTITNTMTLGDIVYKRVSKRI
Protocol: (§1) Advantage was taken of the fact that NBD-stearic acid bound to L-FABP (two ligand binding sites) as well as SCP-2 (single-ligand binding site) to design a NBD-stearic acid displacement assay that allowed determination of which fatty acid synthesis inhibitors or their CoA thioesters bound to these LCFA/LCFA-CoA binding proteins. Displacement of NBD-stearate from L-FABP and SCP-2 was determined by incubating L-FABP or SCP-2 (25 nM in 10 mM phosphate buffer) with NBD stearate (40 nM) for 12 min to obtain maximal fluorescence, followed by titration with increasing amount of ligand. From the displacement curve, the K i value was calculated as described. All experiments were carried out with a thermostated cuvette to maintain temperature at 24°C using a circulating water bath. ANS displacement assay was performed as described.

[3] = biological target: T2, SCP-2 (Homo sapiens, UniProt P22307); experiment: Displacement of SCP-2-bound NBD-stearic acid; format: binding
T2 construct: made in house
T2 sequence (P22307 1-143 isoform P22307-2): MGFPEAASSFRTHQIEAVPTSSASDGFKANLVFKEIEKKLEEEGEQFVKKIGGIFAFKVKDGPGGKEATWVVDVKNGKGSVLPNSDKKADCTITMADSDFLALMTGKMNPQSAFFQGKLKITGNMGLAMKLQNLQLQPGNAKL
Protocol: as §1

[4] = test system: mouse primary hepatocytes; experiment: Hepatocyte unesterified (free) LCFA determination; format: cell-based; settings: normal physiological glucose (6 mM), inhibitor 10 μg/mL
Protocol: Mouse hepatocytes were isolated from livers of male wild-type and L-FABP null mice as described. To study the effect of TOFA and C75 at different glucose levels, mouse hepatocytes were cultured overnight with DMEM/F-12 supplemented with 5% FBS. Cells were incubated with glucose-free DMEM supplemented with fatty acid-free BSA (40 μM), 100 nM insulin, 10 nM dexamethasone, and without (no inhibitor) or with the de novo fatty acid synthesis inhibitors C75 or TOFA (10 μg/mL) for 30 min (1 mL/well). Cells were incubated further for 5 hr with 6 or 20 mM glucose without or with the inhibitors.
Cultured mouse hepatocytes were plated 4 × 10^5 cells per well in 12-well tissue culture plates. After incubation with TOFA or C75 at different glucose levels as described previously, hepatocytes were washed with cold PBS 4x, scraped with cold PBS (with protease inhibitor), and homogenized with a probe sonicator (Sonic Dismembrator 550, Fisher Scientific, Waltham, MA, USA). A 20 μL sample was saved for protein analysis using the Bio-Rad protein assay reagent, (Bio-Rad, Hercules, CA, USA). […]
The LCFA content of each sample was measured with the Free Fatty Acid Quantification Kit from BioVision, Inc. (Mountain View, California, USA) according to manufacturer's instructions, using a standard of palmitic acid included in the kit. […]

[5] = biological target: T1, L-FABP; experiment: Displacement of L-FABP-bound ANS; format: binding; settings: read-out: K i, displacing L-FABP-bound ANS
Protocol: as §1

[6] = biological target: T1, L-FABP; experiment: L-FABP tyrosine fluorescence quenching; format: binding; settings: L-FABP 100 nM
Protocol: Tyrosine fluorescence of L-FABP (100 nM) in 10 mM phosphate buffer was monitored by scanning from 290 to 400 nm, with excitation wavelength 280 nm, before and after small increments of added binding ligand. The binding curve was constructed by plotting tyrosine fluorescence intensity at 305 nm versus concentration of the ligand. K d was then calculated as described.

[7] = test system: PPARα; settings: COS7 cells; cited from earlier work

For `C=C1C(=O)OC(CCCCCCCC)C1C(=O)O` (centres unmarked) [C75, 4-methylene-2-octyl-5-oxotetrahydrofuran-3-carboxylic acid], which “CPT1A activity and fatty acid oxidation” value [1] is on record?
Its value is “increased”.

And the “Displacement of NBD-stearic acid bound to L-FABP (in words)” value [2]?
Its value is “weaker”.

What about the “Displacement of NBD-stearic acid bound to SCP-2 (in words)” value [3] of the same molecule?
Its value is “barely detectable”.

What about the “K i, displacing SCP-2-bound NBD-stearic acid” value ([3]; SCP-2 25 nM, NBD stearate 40 nM, 24°C) of the same molecule?
Its value is “not bound^(a)”.

And the “Unesterified fatty acid level” value [4]?
The value was “Neither TOFA nor C75 significantly impacted”.

And the Ki [5]?
Its Ki is 5.59 ± 0.31 µM.

With `CCCCCCCCCCCCCCOc1ccc(C(=O)O)o1` [TOFA, 5-tetradecyloxy-2-furancarboxylic acid] as the molecule, how does the “CPT1A activity and fatty acid oxidation” value [1] read?
The value was “increased”.

And the Ki ([2]; L-FABP 25 nM, NBD stearate 40 nM, 24°C, read-out: K i, displacing L-FABP-bound NBD-stearic acid)?
The Ki was 0.066 ± 0.003 µM.

What about the “Fluorescence of L-FABP-bound NBD-stearic acid decreasing to” value ([2]; at 650 nM TOFA) of the same molecule?
Its value is 40%.

And the “Quenching of L-FABP tyrosine emission (in words)” value [6]?
The value was “efficiently quenched”.

What about the Kd ([6]; 10 mM phosphate buffer, read-out: K d by L-FABP tyrosine quenching (converted)) of the same molecule?
Its Kd is 0.057 µM.

And the “Transactivation of PPARα” value [7]?
The value was “transactivated”.

What about the Ki ([3]; SCP-2 25 nM, NBD stearate 40 nM, 24°C, read-out: K i, displacing SCP-2-bound NBD-stearic acid) of the same molecule?
The Ki was 0.227 ± 0.02 µM.

What about the “Unesterified fatty acid level” value [4] of the same molecule?
Its value is “Neither TOFA nor C75 significantly impacted”.
